{
  "source": "patent US20250099458A1",
  "about": "“USE OF ANTI-IDIOPATHIC PULMONARY FIBROSIS DRUG NINTEDANIB IN TREATMENT OF TUBERCULOSIS” (Beijing Chest Hospital, Capital Medical University, priority 2022, published 2025)",
  "key": {"[1]": {"system": "H37Rv in J774A.1 macrophages", "assay": "Macrophage intracellular bactericidal activity", "type": "cell-based, Mycobacterium tuberculosis", "settings": "for CFU / log10 CFU: J774A.1, 72 h", "method": "The macrophage intracellular bactericidal activity is used to evaluate the anti-tuberculosis activities of BIBF1120 alone and BIBF1120+RFP in combination. The specific operating method includes: collecting J774A.1 macrophages into a 50 ml centrifuge tube, and taking 100 μl of macrophages and 900 μl of a cell culture medium, which are added into a 1.5 ml sterile centrifuge tube for 10-fold dilution; counting under a microscope; diluting macrophages to 4*10^5/ml and gently plating the macrophages into a 48-well clear microwell plate, with 1 ml in each well; culturing in an incubator with 5% of CO2 at 37° C. for 24 h after plating; co-culturing MOI=5:1 and 2*10^6 CFU/MLH37Rv with the macrophages; rinsing 2 times with sterile PBS 4 h later to remove extracellular Mycobacterium tuberculosis, and adding a new RPMI cell culture medium; putting into an incubator with 5% of CO2 at 37° C. and culturing for 72 h. discarding RPMI in the 48-well plate 3 days later, adding 200 μl of 0.1% SDS and placing in the incubator for 5 to 10 min, and adding 800 μl of the cell culture medium into each well and mixing well; and after cell lysis, taking 100 μl from each well for 10-, 100-, 1000-, 100000-fold dilution, and inoculating 100 μl on a 7H10 solid medium, spreading it evenly with a spreader and counting CFUs three weeks later."}, "[2]": {"system": "pulmonary and splenic Mycobacterium tuberculosis (H37Rv strain)", "type": "in vivo, C57BL/6 female mice", "settings": "after 8 weeks of administration; BIBF1120 added to HRZ"}, "H37Rv strain": {"system": "H37Rv strain", "assay": "In vitro activity on Mycobacterium tuberculosis (Alamar Blue MIC)", "type": "cell-based", "settings": "H37Rv standard strain, 7H9 medium, 37° C. 7 d, Alamar Blue 24 h"}},
  "data": [
    {"smiles": "CCS(=O)(=O)O.COC(=O)c1ccc2c(c1)NC(=O)/C2=C(\\Nc1ccc(N(C)C(=O)CN2CCN(C)CC2)cc1)c1ccccc1", "note": "[BIBF1120, Nintedanib]", "values": [
      {"measurement": "bacteriostatic effect administered alone", "setting": "[1]; BIBF1120 alone, 25 ug/ml", "value": "no significant bacteriostatic effect"},
      {"measurement": "CFU", "setting": "[1]; Table 1, BIBF1120 12.5 ug/ml", "value": 2400000},
      {"measurement": "log10 CFU", "setting": "[1]; Table 1, BIBF1120 12.5 ug/ml", "value": 6.380},
      {"measurement": "CFU", "setting": "[1]; Table 1, BIBF1120 25 ug/ml", "value": 1462500},
      {"measurement": "log10 CFU", "setting": "[1]; Table 1, BIBF1120 25 ug/ml", "value": 6.165},
      {"measurement": "CFU", "setting": "[1]; Table 1, BIBF1120 50 ug/ml", "value": 1077500},
      {"measurement": "log10 CFU", "setting": "[1]; Table 1, BIBF1120 50 ug/ml", "value": 6.032},
      {"measurement": "CFU", "setting": "[1]; Table 2, BIBF1120 25 ug/ml", "value": 2750000},
      {"measurement": "log10 CFU", "setting": "[1]; Table 2, BIBF1120 25 ug/ml", "value": 6.439},
      {"measurement": "sterilizing of the spleen and the lung", "setting": "[2]", "value": "achieves sterilizing of the spleen and the lung"},
      {"measurement": "MIC", "setting": "H37Rv strain", "value": 24.6, "unit": "µg/mL"}
    ]},
    {"smiles": "CO[C@H]1/C=C/O[C@@]2(C)Oc3c(C)c(O)c4c(O)c(c(/C=N/N5CCN(C)CC5)c(O)c4c3C2=O)NC(=O)/C(C)=C\\C=C\\[C@H](C)[C@H](O)[C@@H](C)[C@@H](O)[C@@H](C)[C@H](OC(C)=O)[C@@H]1C", "note": "[RFP, rifampicin]", "values": [
      {"measurement": "CFU", "setting": "[1]; Table 1, RFP 2 ug/ml", "value": 502500},
      {"measurement": "log10 CFU", "setting": "[1]; Table 1, RFP 2 ug/ml", "value": 5.701},
      {"measurement": "CFU", "setting": "[1]; Table 2, RFP 2 ug/ml", "value": 202500},
      {"measurement": "log10 CFU", "setting": "[1]; Table 2, RFP 2 ug/ml", "value": 5.306}
    ]}
  ]
}
